Where a name gives a salt, the structure may show the parent alone.
Experiments:
[1] = In vivo pharmacokinetic study in rats, IV and PO dosing (Example 6); conditions: rat; for AUC(0-inf) / clearance / half-life / Vd / Cmax / Tmax / concentration at 4 hr / bioavailability / concentration at 2 hr: plasma; for Vd: read-out: Vz; for concentration at 4 hr: Cmin at 4 hr; for bioavailability: 200 mg/kg, PO vs IV AUC0-∞
Experimental: The pharmacokinetics of exemplary compounds was determined by comparison with 4-hydroxybutyric acid by dosing the compounds in rats according to the following study design and sampling procedure.
The results of the in vivo studies are disclosed in the following table (Table 2): […]

[2] = In vivo pharmacokinetic study in rats, oral dosing (Example 7); conditions: rat, 200 mg/kg PO; for AUC(0-inf) / Cmax / Tmax / half-life: in vivo, mean; for AUC0-∞ value relative to 4-hydroxybutyric acid, sodium salt: sodium salts
Experimental: In a separate study, the pharmacokinetics of exemplary compounds IV-a, IV-b and IV-d was determined by comparison with 4-hydroxybutyric acid by dosing the compounds in rats orally. The study design was the same as for Example 6, except that sampling time points were as follows: predose, 5 min, 15 min, 30 min, 1 hour, 2 hours, 3 hours, 4 hours, and 5 hours (the 5 hour levels were not included in the for PK calculations). The results of the in vivo studies are disclosed in the following table (Table 3): […]

[3] = in humans; cited from earlier work
[4] = 200 mg/kg IV, mean, calculated up to 2 hr
[5] = 200 mg/kg PO, mean, calculated up to 4 hr
[6] = 200 mg/kg IV, mean, Cmin at 2 hr

SMILES	AUC(0-inf) ([1]; 200 mg/kg IV, mean) [µg·h/mL]	clearance ([1]; 200 mg/kg IV, mean) [mL/min/kg]	half-life [1, 4] [min]	Vd ([1]; 200 mg/kg IV, mean) [L/kg]	AUC(0-inf) ([1]; 200 mg/kg PO, mean) [µg·h/mL]	Cmax ([1]; 200 mg/kg PO, mean) [µg/mL]	Tmax ([1]; 200 mg/kg PO, mean) [min]	concentration at 4 hr ([1]; 200 mg/kg PO, mean) [ng/mL]	half-life [1, 5] [min]	bioavailability [1] [%]	AUC(0-inf) [2] [µg·h/mL]	Cmax [2] [µg/mL]	Tmax [2] [h]	half-life [2] [min]	AUC0-∞ fold versus 4-hydroxybutyric acid, sodium salt [2]	Cmax fold versus 4-hydroxybutyric acid, sodium salt [2]	AUC0-∞ value relative to 4-hydroxybutyric acid, sodium salt [2]	concentration at 2 hr [1, 6] [ng/mL]	AUC0-∞ fold versus 4-hydroxybutyric acid, sodium salt ([1]; 200 mg/kg PO)	also measured
O=C(O)CCCO [4-hydroxybutyric acid, sodium salt, sodium salt of 4-hydroxybutyric acid, reference compound]	427	8	15.6	0.2	170	150	30	2000	36.6	40	165	94	0.79	60.6	–	–	–	–	–	Cmin [1, 6]: 8′ ug/mL; half life [3]: 30 to 60 min
[2H]C([2H])(O)CCC(=O)O [IV-a, sodium salt]	–	–	–	–	–	–	–	–	–	–	335	168	1.17	28.8	(2.0X)	(1.8X)	considerably increased	–	–	–
[2H]C([2H])(O)CC([2H])([2H])C(=O)[O-].[Na+] [IV-b, sodium salt, Sodium 2,2,4,4-d4-4-hydroxybutanoate]	651	5	37.8	0.3	260	151	37.8	5000	56.4	40	407	201	1.5	27.6	(2.5X)	(2.1X)	considerably increased	76000	(+1.5X)	pharmacokinetic stability relative to 4-hydroxybutyric acid, sodium salt ([1]; from AUC0-∞ and t1/2 following IV administration): considerably increased
[2H]C([2H])(O)C([2H])([2H])C([2H])([2H])C(=O)O [IV-d, sodium salt]	–	–	–	–	–	–	–	–	–	–	404	188	1.67	27.6	(2.4X)	(2.0X)	considerably increased	–	–	–
[2H]C([2H])(CCO)C(=O)[O-].[Na+] [sodium 2,2-dideutero-4-hydroxybutanoate]	476	7	19.8	0.2	193	153	37.8	1000	35.4	41	–	–	–	–	–	–	–	19000	(+1.1X)	–

— patent US20150210624A1, “DEUTERATED 4-HYDROXYBUTYRIC ACID ANALOGS” (Concert Pharmaceuticals, Inc., priority 2012, published 2015)
